Data taken from US6207666A, “Method for treating a patient having precancerous lesion with 4-phenylphthalazine derivatives” (Cell Pathways, Inc., priority 1998, dated 2001).

Experiments:
[1] = system: human colon carcinoma cell line, HT-29; experiment: HT-29 tumor cell growth inhibition, Sulforhodamine B (SRB) protein binding assay, six days continuous exposure; format: cell-based; conditions: for SRB Binding (A550): vehicle 0.801 ± 0.137
Method: Compound No. 17, 1-(3-chloroanilino)-4-phenylphthalazine, was assayed for its effect on the human colon carcinoma cell line, HT-29 obtained from ATCC, (Rockville, Md.) to ascertain the degree of growth inhibition. Growth inhibition of this cell line is thought to be indicative of a benefit on precancerous lesions and neoplasms. The cell line and growth assay employed for these experiments is well characterized, and is used by the United States National Cancer Institute in its screening program for new anti-cancer drugs.
Drug stock solutions were made in 100% DMSO then diluted with RPMI media for cell culture testing. All drug solutions were prepared fresh on the day of testing. The cultured cells were obtained at passage #118 and grown in RPMI media supplemented with 5% fetal calf serum, and 2 mM glutamine, 100 U/ml penicillin, 100 U/ml streptomycin, and 0.25 μg/ml amphotericin. The cultures were maintained in a humidified atmosphere of 95% air and 5% CO2 at 37° C. The cultures were passaged at preconfluent densities using a solution of 0.05% trypsin and 0.53 mM EDTA. All experiments involved HT-29 cells between passages 120 and 140. Cells were plated at the following densities to obtain cultures used for the experiments: 500 cells/well for 96 well flat-bottom microtiter plates, 1×10^6 cells per 25 cm^2 flask, or 4×10^6 cells per 75 cm^2 flask.
Tumor cell growth inhibition was assessed using the Sulforhodamine B (SRB) protein binding assay. In this assay, tumor cells were plated in 96-well plates and treated with drug-containing media for six days (continuous exposure). For each plate, 6 wells were designated as no treatment controls, six wells as vehicle (0.1% DMSO) controls, and the remaining wells for drug dilutions with six wells per drug concentration. At the end of the exposure period, the cells were fixed and stained with sulforhodamine B, a protein binding dye. The dye was then solubilized, and the optical density of the resulting solution was determined on a 96-well plate reader. The mean dye intensity of the treated wells was then divided by the mean dye intensity in the control wells (6 wells of each) to determine the effect of the drug on the cells. Dye intensity is proportional to the number of cells or amount of protein per well. The resultant "percent inhibition" value then represents the degree of growth inhibition caused by the drug in Table 4 below.

[2] = system: HT-29 cells; experiment: Apoptosis and necrosis by fluorescent microscopy (acridine orange and ethidium bromide) in confluent HT-29 cultures; format: cell-based, human
Method: Drug stock solutions were made in 100% DMSO then diluted with RPMI media for cell culture testing. All drug solutions were prepared fresh on the day of testing. The cultured cells were obtained at passage #118 and grown in RPMI media supplemented with 5% fetal calf serum, and 2 mM glutamine, 100 U/ml penicillin, 100 U/ml streptomycin, and 0.25 μg/ml amphotericin. The cultures were maintained in a humidified atmosphere of 95% air and 5% CO2 at 37° C. The cultures were passaged at preconfluent densities using a solution of 0.05% trypsin and 0.53 mM EDTA. All experiments involved HT-29 cells between passages 120 and 140. Cells were plated at the following densities to obtain cultures used for the experiments: 500 cells/well for 96 well flat-bottom microtiter plates, 1×10^6 cells per 25 cm^2 flask, or 4×10^6 cells per 75 cm^2 flask. Apoptosis and necrosis were measured using an assay which allowed for the simultaneous measurement of both types of cell death based on morphological characteristics of apoptotic cells (i.e., condensed chromatin) and membrane permeability. Drug preparation and cell culture conditions were the same as above. Confluent cultures were assayed for apoptosis and necrosis by fluorescent microscopy following labeling with acridine orange and ethidium bromide. Floating and attached cells were collected by trypsinization and washed three times in PBS. One ml aliquots of 1×10^6 cells were centrifuged (300 g). The pellet was resuspended in 25 μl media and 1 μl of a dye mixture containing 100 μg/ml acridine orange and 100 μg/ml ethidium bromide prepared in PBS and mixed gently. Ten μl of mixture was placed on a microscope slide and with a 22 mm^2 coverslip and examined under 40 x dry objectives using epilumination and filter combination. An observer blinded to the identity of the treatments scored at least 100 cells per sample. Apoptotic cells were identified by nuclear condensation of chromatin stained by the acridine orange or ethidium bromide. Necrotic cells were identified by uniform labeling of the cell with ethidium bromide. Data was also obtained, under the same procedure above, for the percent of apoptotic cells induced by treatment with varying concentrations of compound No. 17.

[3] = system: mammary lesions (mouse mammary gland organ culture); experiment: DMBA-induced mammary lesions in mouse mammary gland organ culture; format: cell-based, mouse (female BALB/c); conditions: for Glands with Lesions: vehicle 11 of 15; for Percent Incidence (mammary lesions): vehicle 73.33
Method: Compound No. 17 was also tested for its ability to inhibit the incidence of mammary lesions in an organ culture system. This mouse mammary gland organ culture technique has been successfully used by other investigators to study the effects of known cancer-chemopreventative agents such as retinoids and selenium.
Female BALB/c mice, 28 days old, were treated for nine days with a combination of […] of estradiol and 1 mg of progesterone daily, in order to prime the glands to be responsive to hormones in vitro. The animals were sacrificed and thoracic mammary glands were excised aseptically and incubated for ten days in growth media supplemented with growth-promoting hormones: insulin, prolactin, and hydrocortisone, at 5 μg/ml each and aldosterone at 1 μg/ml. A twenty-four hour treatment of 7,12-dimethylbenz(a)anthracene (DMBA, 2 μg/ml) was carried out between days three and four to induce the formation of mammary lesions. Fully developed glands were deprived of prolactin, hydrocortisone, and aldosterone for 14 days, resulting in the regression of the glands but not the mammary lesions.
In order to evaluate the effects of Compound No. 17, it was dissolved in DMSO and added to the culture media supplemented for the duration of the culture period. At the end of the culture period, the glands were fixed in 10%. formalin, stained with alum carmine, and mounted on glass slides. The incidence of forming mammary lesions is the ratio of the glands with mammary lesions and glands […]. The incidence of mammary lesions in compound 17 treated glands was compared with that of the untreated glands.
The extent of the area occupied by the mammary lesions was quantitated by projecting an image of the gland onto a digitation pad. The area covered by the gland was traced on the pad and considered as 100% of the area. The space covered by each of the unregressed structures was also outlined on the digitization pad and quantitated by the computer.

What does the source list for `Clc1cccc(Nc2nnc(-c3ccccc3)c3ccccc23)c1` [Compound No. 17, 1-(3-Chloroanilino)-4-phenylphthalazine]?
SRB Binding (A550) ([1]; 1 μM): 0.851 ± 0.059; SRB Binding (A550) ([1]; 10 μM): 0.007 ± 0.003; SRB Binding (A550) ([1]; 100 μM): 0.009 ± 0.010; inhibition at 1 µM ([1]; Homo sapiens, 144 h, 1 μM): 0%; inhibition at 10 µM ([1]; Homo sapiens, 144 h, 10 μM): 100%; inhibition at 100 µM ([1]; Homo sapiens, 144 h, 100 μM): 100%; % Apoptotic Cells ([2]; 1 μM (Table 6), 0 μM gives 4%): 12%; % Apoptotic Cells ([2]; 5 μM (Table 6), 0 μM gives 4%): 13%; % Apoptotic Cells ([2]; 10 μM (Table 6), 0 μM gives 4%): 7%; % Apoptotic Cells ([2]; 25 μM (Table 6), 0 μM gives 4%): 8%; % Necrotic Cells ([2]; 40 μM, HT-29, vehicle 2%, none 5%): 6%; % Apoptotic Cells ([2]; 40 μM, HT-29, vehicle 9%, none 7%): 83%; % Apoptotic Cells ([2]; 50 μM (Table 6), 0 μM gives 4%): 78%; Glands with Lesions ([3]; 10 μM, of 13 glands): 7; Percent Incidence (mammary lesions) ([3]; 10 μM): 53.85%; Glands with Lesions ([3]; 100 μM, of 15 glands): 4; Percent Incidence (mammary lesions) ([3]; 100 μM): 26.67%; inhibition at 10 µM ([3]; Mus musculus, 10 μM, read-out: Percent Inhibition (mammary lesions)): 27%; inhibition at 100 µM ([3]; Mus musculus, 100 μM, read-out: Percent Inhibition (mammary lesions)): 64%
